Assays:
[1] = 101 kPa, Liquid, Capillary tube (Ostwald / Ubbelohde) method
[2] = wn = mass fraction of the nth substance listed; settings: 101 kPa, Liquid, w1 = 0.009; for viscosity: Capillary tube (Ostwald / Ubbelohde) method; for mass density: Vibrating tube method
[3] = mn = molality of the nth substance listed, in mol/kg; settings: 101 kPa, Liquid, m2 = 0; for viscosity: Capillary tube (Ostwald / Ubbelohde) method; for mass density: Vibrating tube method

O [water]
[1]
Settings	viscosity [mPa·s]
278.15 K	1.521
283.15 K	1.307
288.15 K	1.135
293.15 K	1.002
298.15 K	0.8903
303.15 K	0.7977
308.15 K	0.719
313.15 K	0.6532

[Cl-].[Na+] [sodium chloride] + O
[2]
Settings	mass density [kg/m3]	viscosity [mPa·s]
278.15 K	1006.09	1.53
283.15 K	1005.64	1.321
288.15 K	1005.07	1.154
293.15 K	1004.14	1.015
298.15 K	1002.96	0.9068
303.15 K	1001.47	0.8105
308.15 K	999.75	0.7363
313.15 K	997.82	0.6641

O [water] + CO/N=C(\C(=O)N[C@@H]1C(=O)N2C(C(=O)[O-])=C(CSc3nc(C)c(CC(=O)[O-])s3)CS[C@H]12)c1csc(N)n1.[Na+].[Na+]
[3]
Settings	mass density [kg/m3]	viscosity [mPa·s]
278.15 K	999.96	1.521
283.15 K	999.7	1.307
288.15 K	–	1.135
293.15 K	–	1.002
298.15 K	–	0.8903
303.15 K	–	0.7977
308.15 K	–	0.719
313.15 K	–	0.6532
